pIC50: −log10 of the molar value. The source made the active and inactive calls. The calls are words filed in the database; no cut-off is given here.
What was measured:
[1] = biological target: Epidermal growth factor receptor (Homo sapiens) (UniProt P00533); test: Inhibition of human EGFR at 10 uM after 20 to 40 mins by liquid scintillation counting analysis in presence of […]
[2] = Cytotoxicity against human SW620 cells after 72 hrs by SRB assay; type: functional; conditions: SW-620, 72 h
NCI-H226 = test: Cytotoxicity against human NCI-H226 cells after 72 hrs by SRB assay; type: functional; conditions: NCI-H226, 72 h
Malme-3M = test: Cytotoxicity against human MALME-3M cells after 72 hrs by SRB assay; type: functional
SN12C = test: Cytotoxicity against human SN12C cells after 72 hrs by SRB assay; type: functional
MDA-MB-231 = test: Cytotoxicity against human MDA-MB-231 cells after 72 hrs by SRB assay; type: functional; conditions: MDA-MB-231, 72 h
[3] = Cytotoxicity against human HCT15 cells after 72 hrs by SRB assay; type: functional; conditions: HCT-15, 72 h
[4] = Cytotoxicity against human HCT116 cells after 72 hrs by SRB assay; type: functional; conditions: HCT-116, 72 h
SK-MEL-5 = test: Cytotoxicity against human SK-MEL-5 cells after 72 hrs by SRB assay; type: functional; conditions: SK-MEL-5, 72 h
[5] = Cytotoxicity against human SF268 cells after 72 hrs by SRB assay; type: functional; conditions: SF-268, 72 h
[6] = Cytotoxicity against human HOP62 cells after 72 hrs by SRB assay; type: functional; conditions: HOP-62, 72 h
786-0 = test: Cytotoxicity against human 786-0 cells after 72 hrs by SRB assay; type: functional; conditions: 786-0, 72 h
T47D = test: Cytotoxicity against human T47D cells after 72 hrs by SRB assay; type: functional
[7] = Cytotoxicity against human HCC2998 cells after 72 hrs by SRB assay; type: functional; conditions: HCC 2998, 72 h
NCI-H522 = test: Cytotoxicity against human NCI-H522 cells after 72 hrs by SRB assay; type: functional; conditions: NCI-H522, 72 h
[8] = Cytotoxicity against human HOP92 cells after 72 hrs by SRB assay; type: functional; conditions: HOP-92, 72 h
[9] = Cytotoxicity against human IGROV1 cells after 72 hrs by SRB assay; type: functional; conditions: IGROV-1, 72 h
A549 [10] = test: Upregulation of p27kip1 expression in human A549 cells by Western blotting analysis; type: functional
A549 [11] = test: Cytotoxicity against human A549 cells after 72 hrs by SRB assay; type: functional, cell-based; conditions: A549, 72 h
M14 = test: Cytotoxicity against human M14 cells after 72 hrs by SRB assay; type: functional; conditions: M14, 72 h
SK-MEL-28 = test: Cytotoxicity against human SK-MEL-28 cells after 72 hrs by SRB assay; type: functional; conditions: SK-MEL-28, 72 h
A498 = test: Cytotoxicity against human A498 cells after 72 hrs by SRB assay; type: functional; conditions: A498, 72 h
[12] = Cytotoxicity against human MOLT4 cells after 72 hrs by SRB assay; type: functional; conditions: MOLT-4, 72 h
[13] = Cytotoxicity against human SF539 cells after 72 hrs by SRB assay; type: functional; conditions: SF-539, 72 h
[14] = Cytotoxicity against human SF295 cells after 72 hrs by SRB assay; type: functional; conditions: SF-295, 72 h
[15] = Cytotoxicity against human PC3 cells after 72 hrs by SRB assay; type: functional; conditions: PC-3, 72 h
[16] = Cytotoxicity against human LOXIMVI cells after 72 hrs by SRB assay; type: functional; conditions: LOX IMVI
[17] = Cytotoxicity against human UO31 cells after 72 hrs by SRB assay; type: functional; conditions: UO-31, 72 h
CCRF-CEM = test: Cytotoxicity against human CCRF-CEM cells after 72 hrs by SRB assay; type: functional
[18] = Cytotoxicity against human TK10 cells after 72 hrs by SRB assay; type: functional; conditions: TK-10, 72 h
NCI-H460 = test: Cytotoxicity against human NCI-H460 cells after 72 hrs by SRB assay; type: functional; conditions: NCI-H460, 72 h
NCI-H322M = test: Cytotoxicity against human NCI-H322M cells after 72 hrs by SRB assay; type: functional
[19] = Cytotoxicity against human UACC62 cells after 72 hrs by SRB assay; type: functional; conditions: UACC-62, 72 h
[20] = Cytotoxicity against human OVCAR8 cells after 72 hrs by SRB assay; type: functional; conditions: OVCAR-8, 72 h
[21] = Cytotoxicity against human RXF393 cells after 72 hrs by SRB assay; type: functional; conditions: RXF 393, 72 h
[22] = read-out: LC50 (the source's name)

Chain of Epidermal growth factor receptor (Homo sapiens) (P00533 whole entry): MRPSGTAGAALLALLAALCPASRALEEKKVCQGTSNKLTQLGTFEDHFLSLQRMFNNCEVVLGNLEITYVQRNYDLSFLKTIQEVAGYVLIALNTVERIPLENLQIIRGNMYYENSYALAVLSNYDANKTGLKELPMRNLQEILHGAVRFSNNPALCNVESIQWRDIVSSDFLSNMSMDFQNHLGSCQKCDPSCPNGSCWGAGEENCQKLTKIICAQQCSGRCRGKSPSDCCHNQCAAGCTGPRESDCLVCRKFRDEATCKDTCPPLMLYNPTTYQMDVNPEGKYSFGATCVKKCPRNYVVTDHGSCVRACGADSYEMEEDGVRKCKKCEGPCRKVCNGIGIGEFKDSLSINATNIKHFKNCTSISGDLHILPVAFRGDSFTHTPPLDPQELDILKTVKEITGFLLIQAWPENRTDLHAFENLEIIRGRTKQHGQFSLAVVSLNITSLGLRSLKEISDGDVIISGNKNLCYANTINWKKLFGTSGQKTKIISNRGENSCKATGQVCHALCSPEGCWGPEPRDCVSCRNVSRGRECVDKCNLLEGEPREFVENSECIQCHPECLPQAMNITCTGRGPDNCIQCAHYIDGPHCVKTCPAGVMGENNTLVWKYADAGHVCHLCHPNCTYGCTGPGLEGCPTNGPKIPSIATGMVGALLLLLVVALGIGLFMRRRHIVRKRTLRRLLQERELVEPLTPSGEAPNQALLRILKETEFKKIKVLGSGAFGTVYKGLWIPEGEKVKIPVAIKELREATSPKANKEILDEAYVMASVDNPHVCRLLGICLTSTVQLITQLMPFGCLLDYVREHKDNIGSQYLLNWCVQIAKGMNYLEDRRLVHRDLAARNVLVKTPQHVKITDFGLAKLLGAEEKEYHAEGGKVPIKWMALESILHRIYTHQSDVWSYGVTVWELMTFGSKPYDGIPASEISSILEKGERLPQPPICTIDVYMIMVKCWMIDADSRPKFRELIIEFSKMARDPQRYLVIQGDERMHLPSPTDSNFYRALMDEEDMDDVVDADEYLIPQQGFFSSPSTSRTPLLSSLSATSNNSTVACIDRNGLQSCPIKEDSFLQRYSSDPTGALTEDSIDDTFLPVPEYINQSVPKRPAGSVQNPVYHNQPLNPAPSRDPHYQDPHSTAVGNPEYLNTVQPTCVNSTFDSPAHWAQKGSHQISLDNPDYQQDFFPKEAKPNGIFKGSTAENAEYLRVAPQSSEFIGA

Cc1ccc2nc(Nc3ncnc4c3cnn4-c3ccccc3)sc2c1
inhibition [1]: inactive

O=C(NC1CCCCC1)c1ccc(Nc2ncnc3c2cnn3-c2ccccc2)cc1
GI50 [2]: > 100 µM | TGI [2]: > 100 µM | CC50 [2, 22]: > 100 µM | GI50 (NCI-H226): 3.35 µM | TGI (NCI-H226): 21.5 µM | CC50 (NCI-H226; [22]): > 100 µM | GI50 (Malme-3M): 1.97 µM | TGI (Malme-3M): 4.94 µM | CC50 (Malme-3M; [22]): 21 µM | GI50 (SN12C): 8.26 µM | TGI (SN12C): > 100 µM | CC50 (SN12C; [22]): > 100 µM | GI50 (MDA-MB-231): 5.09 µM | TGI (MDA-MB-231): 21.9 µM | CC50 (MDA-MB-231; [22]): 80.6 µM | GI50 [3]: 99.3 µM | TGI [3]: > 100 µM | CC50 [3, 22]: > 100 µM | GI50 [4]: 4.01 µM | TGI [4]: > 100 µM | CC50 [4, 22]: > 100 µM | GI50 (SK-MEL-5): 21.7 µM | TGI (SK-MEL-5): > 100 µM | CC50 (SK-MEL-5; [22]): > 100 µM | GI50 [5]: 5.85 µM | TGI [5]: > 100 µM | CC50 [5, 22]: > 100 µM | GI50 [6]: 2.62 µM | TGI [6]: 8.78 µM | CC50 [6, 22]: 37.3 µM | GI50 (786-0): 3.47 µM | TGI (786-0): 18.3 µM | CC50 (786-0; [22]): 65.5 µM | GI50 (T47D): 20.2 µM | TGI (T47D): > 100 µM | CC50 (T47D; [22]): > 100 µM | GI50 [7]: > 100 µM | TGI [7]: > 100 µM | CC50 [7, 22]: > 100 µM | GI50 (NCI-H522): 6.4 µM | TGI (NCI-H522): > 100 µM | CC50 (NCI-H522; [22]): > 100 µM | GI50 [8]: 2.53 µM | TGI [8]: 8.29 µM | CC50 [8, 22]: 86.6 µM | GI50 [9]: 14.4 µM | TGI [9]: 65.9 µM | CC50 [9, 22]: > 100 µM | fold change (FC) (A549 [10]): 3 | GI50 (A549 [11]): 4.38 µM | pIC50 (A549 [11]): 4.18 | LC50 (A549 [11]): > 100 µM | TGI (A549 [11]): 51.3 µM | GI50 (M14): 18.3 µM | TGI (M14): > 100 µM | CC50 (M14; [22]): > 100 µM | GI50 (SK-MEL-28): 3.79 µM | TGI (SK-MEL-28): > 100 µM | CC50 (SK-MEL-28; [22]): > 100 µM | GI50 (A498): 3.83 µM | TGI (A498): 39.4 µM | CC50 (A498; [22]): > 100 µM | GI50 [12]: 75.6 µM | TGI [12]: > 100 µM | CC50 [12, 22]: > 100 µM | GI50 [13]: 3.81 µM | TGI [13]: 17.1 µM | CC50 [13, 22]: 49 µM | GI50 [14]: 2.98 µM | TGI [14]: 13.3 µM | CC50 [14, 22]: 43.1 µM | GI50 [15]: 11.8 µM | TGI [15]: 44.8 µM | CC50 [15, 22]: > 100 µM | GI50 [16]: 4.49 µM | TGI [16]: 22.3 µM | CC50 [16, 22]: > 100 µM | GI50 [17]: 23.9 µM | TGI [17]: > 100 µM | CC50 [17, 22]: > 100 µM | GI50 (CCRF-CEM): > 100 µM | TGI (CCRF-CEM): > 100 µM | CC50 (CCRF-CEM; [22]): > 100 µM | GI50 [18]: 16.5 µM | TGI [18]: 49.5 µM | CC50 [18, 22]: > 100 µM | GI50 (NCI-H460): 7.09 µM | TGI (NCI-H460): > 100 µM | CC50 (NCI-H460; [22]): > 100 µM | GI50 (NCI-H322M): 15.8 µM | TGI (NCI-H322M): > 100 µM | CC50 (NCI-H322M; [22]): > 100 µM | GI50 [19]: 17.4 µM | TGI [19]: > 100 µM | CC50 [19, 22]: > 100 µM | GI50 [20]: 3.87 µM | TGI [20]: 19.3 µM | CC50 [20, 22]: > 100 µM | GI50 [21]: 2.43 µM | TGI [21]: 9.33 µM | CC50 [21, 22]: 56.9 µM

— ChEMBL document CHEMBL3751764, “Synthesis and in vitro antiproliferative activity of novel pyrazolo[3,4-d]pyrimidine derivatives” (Medchemcomm, 2015)
